Assay results reported in patent publication US20100041089A1, “IMPROVED METHOD FOR DETECTING CHEMICAL […]” (priority 2006, published 2010).

System: yeast genes (expressed mRNA)
Test: DNA chip measurement of expressed mRNA of yeast genes after culture with a toxic chemical substance
Type: cell-based, Saccharomyces cerevisiae S288C
Conditions: for level of expressed mRNA in the presence of chemical substance / level in the absence of chemical substance: cultured two hours with the chemical substance; for The level of expressed mRNA in the presence of chemical substance/The level of expressed mRNA in the absence of chemical substance: cultured two hours with substance
Experimental: Yeast (Saccharomyces cerevisiae S288C (a SUC2mal mel gap2 CUP1)) were cultured at 25° C. on YPD medium (yeast extract 1%, polypeptone 2%, glucose 2%). One of toxic chemical substances was added to the cell at logarithmic growth phase, and the cell was further cultured for two hours. Cell was cultured without any chemical substance in the same condition, and was used as a control. Concentrations of the chemical substances were defined to inhibit the growth of the yeast but not lead to death.
After the completion of cultivation, the culture was centrifuged to collect the cells. To the cells, sodium acetate buffer (50 mM sodium acetate, 10 mM EDTA, 1% SDS) was added, and the mixture was shaken at 65° C. for five minutes, followed by returning to room temperature, and obtaining the supernatant, which procedure was repeated two times. To the supernatant, ½ amount of a solution of phenol/chloroform (1:1) was added, and the mixture was centrifuged to give a supernatant, an equal amount of chloroform was added, and the mixture was centrifuged to give a supernatant. To the supernatant, an equal amount of isopropanol containing 0.3 M sodium acetate was added, and the mixture was allowed to stand at room temperature for 30 minutes, after which the mixture was centrifuged to give sediment of the whole RNAs. Seventy % ethanol was added to the sediment, and the mixture was again centrifuged to give sediment, which was then dried and dissolved in water. mRNA was isolated from the whole RNAs as followings. In view of the fact that a poly A chain is attached to the 3′ terminus of mRNA, a polynucleotide having a poly T structure which was immobilized on the surface of latex beads was used to trap the mRNA, and then the mRNA was washed and eluted with spine column (Oligotex-dT30<Super>mRNA Purification Kit, Takara). Reverse transcription of the mRNA was conducted with a reverse transcriptase (Super Script II Reverse Transcriptase; catalogue No. 18064-014, GibcoBRL) using fluorescence-labeled nucleotides to give cDNAs that were introduced with Cy3-dUTP or Cy5-dUTP during the reverse transcription.
The labeled cDNAs were dissolved in TE buffer (10 mM Tris-HCl/1 mM EDTA, pH 8.0), and the solution was dropped on the DNA chip containing the whole genes of yeast (DNA Chip Research Inc. Japan) so that the cDNAs were hybridized on the DNA chip at 65° C. for over 12 hours. The fluoresces intensity of the DNA chip was read with a scanner, and the ratio relative to the fluorescence intensity resulting from the absence of chemical substance was estimated as the following, which is shown in Tables 1 to 9.
In the Tables, “Intensity” indicated in the rightmost column is a value of the level of expressed mRNA of each gene in control cells as divided by the average level of the expressions of the whole genes. A gene of which mRNA level is lower in control, and is higher in cases of addition of chemical substance, is especially useful in the detection of toxic substances.
Here, when a ratio of an amount of mRNA expressed in the presence of the chemical substance to an amount of mRNA expressed in the absence of the chemical substance is two or more, then it is considered significant.

## CCCCCCCCCCCCc1ccc(S(=O)(=O)[O-])cc1.[Na+] [(17), Sodium dodecylbenzosulfonate]
Yeast gene YJL097W
  level of expressed mRNA in the presence of chemical substance / level in the absence of chemical substance: 1.2
Yeast gene YJL151C
  The level of expressed mRNA in the presence of chemical substance/The level of expressed mRNA in the absence of chemical substance: 3.5
Yeast gene YJL152W
  The level of expressed mRNA in the presence of chemical substance/The level of expressed mRNA in the absence of chemical substance: 2.5
Yeast gene YJL161W
  The level of expressed mRNA in the presence of chemical substance/The level of expressed mRNA in the absence of chemical substance: 1.9
Yeast gene YJL171C
  The level of expressed mRNA in the presence of chemical substance/The level of expressed mRNA in the absence of chemical substance: 3.6
Yeast gene YJR008W
  The level of expressed mRNA in the presence of chemical substance/The level of expressed mRNA in the absence of chemical substance: 1.5
Yeast gene YJR030C
  level of expressed mRNA in the presence of chemical substance / level in the absence of chemical substance: 0.7
Yeast gene YJR054W
  The level of expressed mRNA in the presence of chemical substance/The level of expressed mRNA in the absence of chemical substance: 0.9
Yeast gene YKL051W
  level of expressed mRNA in the presence of chemical substance / level in the absence of chemical substance: 1.5
Yeast gene YKL071W
  The level of expressed mRNA in the presence of chemical substance/The level of expressed mRNA in the absence of chemical substance: 1.0
Yeast gene YKL086W
  The level of expressed mRNA in the presence of chemical substance/The level of expressed mRNA in the absence of chemical substance: 0.9
Yeast gene YKL097C
  level of expressed mRNA in the presence of chemical substance / level in the absence of chemical substance: 1.1
Yeast gene YKL100C
  level of expressed mRNA in the presence of chemical substance / level in the absence of chemical substance: 0.7
Yeast gene YKL151C
  The level of expressed mRNA in the presence of chemical substance/The level of expressed mRNA in the absence of chemical substance: 1.4
Yeast gene YKL153W
  The level of expressed mRNA in the presence of chemical substance/The level of expressed mRNA in the absence of chemical substance: 0.9
Yeast gene YKL195W
  The level of expressed mRNA in the presence of chemical substance/The level of expressed mRNA in the absence of chemical substance: 1.4
Yeast gene YKR040C
  level of expressed mRNA in the presence of chemical substance / level in the absence of chemical substance: 0.7
Yeast gene YKR091W
  The level of expressed mRNA in the presence of chemical substance/The level of expressed mRNA in the absence of chemical substance: 1.6
Yeast gene YLR054C
  The level of expressed mRNA in the presence of chemical substance/The level of expressed mRNA in the absence of chemical substance: 1.6
Yeast gene YLR149C
  The level of expressed mRNA in the presence of chemical substance/The level of expressed mRNA in the absence of chemical substance: 1.3
Yeast gene YLR152C
  The level of expressed mRNA in the presence of chemical substance/The level of expressed mRNA in the absence of chemical substance: 1.5
Yeast gene YLR194C
  The level of expressed mRNA in the presence of chemical substance/The level of expressed mRNA in the absence of chemical substance: 1.0
Yeast gene YLR226W
  level of expressed mRNA in the presence of chemical substance / level in the absence of chemical substance: 1.1
Yeast gene YLR324W
  The level of expressed mRNA in the presence of chemical substance/The level of expressed mRNA in the absence of chemical substance: 1.2
Yeast gene YLR338W
  level of expressed mRNA in the presence of chemical substance / level in the absence of chemical substance: 0.8
Yeast gene YLR350W
  The level of expressed mRNA in the presence of chemical substance/The level of expressed mRNA in the absence of chemical substance: 1.6
Yeast gene YLR387C
  The level of expressed mRNA in the presence of chemical substance/The level of expressed mRNA in the absence of chemical substance: 1.0
Yeast gene YLR392C
  level of expressed mRNA in the presence of chemical substance / level in the absence of chemical substance: 0.8
Yeast gene YLR415C
  level of expressed mRNA in the presence of chemical substance / level in the absence of chemical substance: 0.8
Yeast gene YLR427W
  level of expressed mRNA in the presence of chemical substance / level in the absence of chemical substance: 1.0
Yeast gene YLR460C
  The level of expressed mRNA in the presence of chemical substance/The level of expressed mRNA in the absence of chemical substance: 1.0
Yeast gene YML013W
  level of expressed mRNA in the presence of chemical substance / level in the absence of chemical substance: 1.1
Yeast gene YML029W
  level of expressed mRNA in the presence of chemical substance / level in the absence of chemical substance: 1.2
Yeast gene YML041C
  level of expressed mRNA in the presence of chemical substance / level in the absence of chemical substance: 1.3
Yeast gene YML079W
  level of expressed mRNA in the presence of chemical substance / level in the absence of chemical substance: 1.4
Yeast gene YML117W
  The level of expressed mRNA in the presence of chemical substance/The level of expressed mRNA in the absence of chemical substance: 1.1
Yeast gene YMR009W
  The level of expressed mRNA in the presence of chemical substance/The level of expressed mRNA in the absence of chemical substance: 2.7
Yeast gene YMR067C
  The level of expressed mRNA in the presence of chemical substance/The level of expressed mRNA in the absence of chemical substance: 1.0
Yeast gene YMR068W
  level of expressed mRNA in the presence of chemical substance / level in the absence of chemical substance: 1.3
Yeast gene YMR071C
  level of expressed mRNA in the presence of chemical substance / level in the absence of chemical substance: 1.2
Yeast gene YMR090W
  The level of expressed mRNA in the presence of chemical substance/The level of expressed mRNA in the absence of chemical substance: 1.8
Yeast gene YMR095C
  The level of expressed mRNA in the presence of chemical substance/The level of expressed mRNA in the absence of chemical substance: 1.0
Yeast gene YMR097C
  The level of expressed mRNA in the presence of chemical substance/The level of expressed mRNA in the absence of chemical substance: 1.4
Yeast gene YMR102C
  The level of expressed mRNA in the presence of chemical substance/The level of expressed mRNA in the absence of chemical substance: 2.4
Yeast gene YMR107W
  The level of expressed mRNA in the presence of chemical substance/The level of expressed mRNA in the absence of chemical substance: 1.3
Yeast gene YMR160W
  level of expressed mRNA in the presence of chemical substance / level in the absence of chemical substance: 0.9
Yeast gene YMR180C
  The level of expressed mRNA in the presence of chemical substance/The level of expressed mRNA in the absence of chemical substance: 1.4
Yeast gene YMR184W
  The level of expressed mRNA in the presence of chemical substance/The level of expressed mRNA in the absence of chemical substance: 1.4
Yeast gene YMR191W
  The level of expressed mRNA in the presence of chemical substance/The level of expressed mRNA in the absence of chemical substance: 1.2
Yeast gene YMR295C
  The level of expressed mRNA in the presence of chemical substance/The level of expressed mRNA in the absence of chemical substance: 2.1
Yeast gene YMR316W
  The level of expressed mRNA in the presence of chemical substance/The level of expressed mRNA in the absence of chemical substance: 6.9
Yeast gene YNL026W
  level of expressed mRNA in the presence of chemical substance / level in the absence of chemical substance: 1.0
Yeast gene YNL044W
  The level of expressed mRNA in the presence of chemical substance/The level of expressed mRNA in the absence of chemical substance: 3.1
